{"source": "ChEMBL document CHEMBL3272088", "about": "“Stereochemical studies of adrenergic drugs. Diastereomeric 2-amino-1-phenylcyclobutanols” (1976)", "key": {"[1]": {"assay": "Induction of tissue contraction in albino Sprague-Dawley rat reserpine-treated adrenergically innervated vas deferens at 3 x 10^-7 M by isotonic myograph analysis", "format": "functional"}, "Vas deferens [2]": {"test_system": "Vas deferens", "assay": "Intrinsic activity of (-)-norepinephrine-induced tissue contraction in albino Sprague-Dawley rat reserpine-treated adrenergically innervated vas deferens at 3 x 10^-6 M after 15 mins by isotonic myograph analysis", "format": "functional"}, "[3]": {"assay": "Potentiation of (-)-norepinephrine-induced tissue contraction in albino Sprague-Dawley rat reserpine-treated adrenergically innervated vas deferens at 3 x 10^-6 M after 15 mins by isotonic myograph analysis", "format": "functional"}, "Vas deferens [4]": {"test_system": "Vas deferens", "assay": "Intrinsic activity of (-)-norepinephrine-induced tissue contraction in albino Sprague-Dawley rat reserpine-treated adrenergically innervated vas deferens at 1 x 10^-5 to 3 x 10^-5 M after 15 mins by isotonic myograph analysis", "format": "functional, tissue-based"}, "Vas deferens [5]": {"test_system": "Vas deferens", "assay": "Intrinsic activity of (-)-norepinephrine-induced tissue contraction in albino Sprague-Dawley rat reserpine-treated adrenergically innervated vas deferens after 15 mins by isotonic myograph analysis", "format": "functional, tissue-based"}, "Rattus norvegicus [6]": {"species_on_record": "Rattus norvegicus", "assay": "Potentiation of (-)-norepinephrine-induced tissue contraction in albino Sprague-Dawley rat reserpine-treated adrenergically innervated vas deferens at 3 x 10^-5 to 3 x 10^-4 M after 15 mins by isotonic myograph analysis", "format": "functional, tissue-based"}, "[7]": {"assay": "Potentiation of (-)-norepinephrine-induced tissue contraction in albino Sprague-Dawley rat reserpine-treated adrenergically innervated vas deferens at 3 x 10^-4 M after 15 mins by isotonic myograph analysis", "format": "functional"}, "Rattus norvegicus [8]": {"species_on_record": "Rattus norvegicus", "assay": "Potentiation of (-)-norepinephrine-induced tissue contraction in albino Sprague-Dawley rat reserpine-treated adrenergically innervated vas deferens after 15 mins by isotonic myograph analysis", "format": "functional, tissue-based"}}, "note": "Activity calls are given as the source filed them. No cut-off for these calls is given here.", "data": [{"smiles": "NCC(O)c1ccc(O)c(O)c1", "note": "(centres undefined)", "values": [{"measurement": "Activity", "setting": "[1]", "value": 10, "unit": "%"}]}, {"smiles": "CC(N)C(O)c1ccccc1", "note": "(centres undefined) [PHENYLPROPANOLAMINE]", "values": [{"measurement": "Activity", "setting": "Vas deferens [2]", "value": "<5", "unit": "%"}, {"measurement": "Activity", "setting": "[3]", "value": 66, "unit": "%"}, {"measurement": "Activity", "setting": "Vas deferens [4]", "value": "Active"}]}, {"smiles": "N[C@@H]1CC[C@]1(O)c1ccccc1", "values": [{"measurement": "Activity", "setting": "Vas deferens [5]", "value": "inactive"}, {"measurement": "Activity", "setting": "Rattus norvegicus [6]", "value": "inactive"}]}, {"smiles": "N[C@@H]1CC[C@@]1(O)c1ccccc1", "values": [{"measurement": "Activity", "setting": "Vas deferens [5]", "value": "inactive"}, {"measurement": "Activity", "setting": "[7]", "value": 55, "unit": "%"}, {"measurement": "Activity", "setting": "Rattus norvegicus [8]", "value": "Dose-dependent effect"}]}]}
